In patent publication US20170326106A1, “TREATMENT OF AGE RELATED MACULAR DEGENERATION WITH A SMALL ACTIVE CHOROIDAL NEOVASCULARIZATION LESION” (BAYER HEALTHCARE LLC, priority 2014, published 2017):

Tests used:
Type in all cases: in vivo, human
[1] = test system: Chinese subjects with age-related neovascular or wet age-related macular degeneration; test: Randomized double-blind clinical study, BCVA of the study eye by ETDRS
Experimental: (§1) A total of 304 Chinese subjects with age-related neovascular or wet age-related macular degeneration were enrolled in a randomized, double-blind clinical study to assess the efficacy of intravitreal (IVT) administrated aflibercept compared with V®-PDT on the mean change in BCVA (Best corrected visual acuity) from baseline to Week 28. BCVA of the study eye was assessed according to the standard procedures developed for the ETDRS (Early Treatment Diabetic Retinopathy Study) adapted for Age Related Eye Disease Study (AREDS). The key inclusion criteria were as follows: • Signed and dated written ICF. • Men and women ≧50 years of age. • Active predominantly classic, subfoveal choroidal neovascularization (CNV) lesions secondary to AMD, including juxtafoveal lesions that affect the fovea, as evidenced by fluorescein angiography (FA), in the study eye. • The area of the CNV had to occupy at least 50% of the total lesion. • ETDRS best corrected visual acuity (BCVA) of 73 to 25 letters in the study eye (Snellen activity equivalent of 20/40 to 20/320 in the study eye).
(§2) The following key exclusion criteria applied for the study eye: • Total lesion size is greater than 12 disc areas (30.5 mm^2, including blood, scars and neovascularization), as assessed by FA • Sub-retinal hemorrhages that is >50% of the total lesion area, or if the blood is under the fovea and is 1 or more disc areas in size. (If the blood is under the fovea, then the fovea must be surrounded by 270 degrees by visible CNV.) • Presence of CNV with an origin other than wAMD. History or clinical evidence of diabetic retinopathy, diabetic macular edema or any retinal vascular disease other than wAMD. Particular attention should be made to exclude subjects with polypoidal choroidal vasculopathy (PCV). • Presence of scar, fibrosis, or atrophy involving the center of the fovea that indicates substantial irreversible vision loss. • Presence of retinal pigment epithelial tears or rips involving the macula.
Eligible patients were randomized 3:1 to receive aflibercept (VTE) 2Q8 or V®-PDT (228 VTE+76 PDT). 194 patients with active CNV lesions >=50% (147 VTE2Q8+47 PDT) and 106 patients with active CNV lesions <50% (78 VTE2Q8+28 PDT) were included. The lesion size was determined by a central reading center based on the MPS protocol [Macular Photocoagulation Study Group, Arch Ophthalmol 1991, 109:1242-1257]. The active CNV size, the area of CNV (mm^2) as well as the total lesion size was measured using the FA. The central retinal thickness was determined by optical coherence tomography. In the VTE2Q8 group patients were treated with 2 mg (0.05 mL) aflibercept administered intravitreally at baseline, week 4, 8, 16, 24, 32, 40 and 48. In the PDT group V®-PDT was performed at baseline and potential PDT retreatment according to the guidelines for the use of PDT treatment in wAMD [Verteporfin Roundtable Participants, Retina. 2005; 25(2):119-34] were performed at week 12 and 24. At Week 28, after assessment of the primary and secondary endpoints, subjects in the PDT→VEGF Trap-Eye group received an IVT injection of 2.0 mg VEGF Trap-Eye, followed by additional 2.0 mg VEGF Trap-Eye injections at Weeks 32, 36, 40, and 48.

[2] = test system: Chinese subjects with age-related neovascular or wet age-related macular degeneration; test: Same clinical study, CNV lesion size by fluorescein angiography (MPS protocol)
Experimental: as §1, §2
(§3) Eligible patients were randomized 3:1 to receive aflibercept (VTE) 2Q8 or V®-PDT (228 VTE+76 PDT). 194 patients with active CNV lesions >=50% (147 VTE2Q8+47 PDT) and 106 patients with active CNV lesions <50% (78 VTE2Q8+28 PDT) were included. The lesion size was determined by a central reading center based on the MPS protocol [Macular Photocoagulation Study Group, Arch Ophthalmol 1991, 109:1242-1257]. The active CNV size, the area of CNV (mm^2) as well as the total lesion size was measured using the FA. The central retinal thickness was determined by optical coherence tomography. In the VTE2Q8 group patients were treated with 2 mg (0.05 mL) aflibercept administered intravitreally at baseline, week 4, 8, 16, 24, 32, 40 and 48. […]

[3] = test system: Chinese subjects with age-related neovascular or wet age-related macular degeneration; test: Same clinical study, central retinal thickness by optical coherence tomography
Experimental: as §1, §2, §3

[4] = active CNV lesion <50%, week 28
[5] = active CNV lesion <50%, week 52, PDT group on VEGF Trap-Eye from week 28
[6] = active CNV lesion >=50%, week 28
[7] = active CNV lesion >=50%, week 52, PDT group on VEGF Trap-Eye from week 28

Aflibercept [VTE2Q8]
Mean change of BCVA ([1]; active CNV lesion <50% of total lesion size, week 28, from baseline): 16.7 letters
Mean change of BCVA ([1]; active CNV lesion <50% of total lesion size, week 28, from baseline, listed as aflibercept): 16.7 (−21 to 59) letters
Mean change of BCVA ([1]; active CNV lesion <50% of total lesion size, week 52, from baseline, PDT group received IVT 2.0 mg VEGF Trap-Eye from week 28): 18.1 letters
Proportion of patients who gained 5 or more letters [1, 4]: 85.9%
Proportion of patients who gained 10 or more letters [1, 4]: 73.1%
Proportion of patients who gained 15 or more letters [1, 4]: 57.7%
Proportion of patients who lost 5 or more letters [1, 4]: 5.1%
Proportion of patients who lost 10 or more letters [1, 4]: 3.8%
Proportion of patients who lost 15 or more letters [1, 4]: 2.6%
Proportion of patients who maintained vision (letter loss <15 letters) [1, 4]: 97.4%
Proportion of patients who gained 5 or more letters [1, 5]: 88.5%
Proportion of patients who gained 10 or more letters [1, 5]: 78.2%
Proportion of patients who gained 15 or more letters [1, 5]: 69.2%
Proportion of patients who lost 5 or more letters [1, 5]: 6.4%
Proportion of patients who lost 10 or more letters [1, 5]: 3.8%
Proportion of patients who lost 15 or more letters [1, 5]: 3.8%
Proportion of patients who maintained vision (letter loss <15 letters) [1, 5]: 96.2%
Mean change of BCVA ([1]; active CNV lesion >=50% of total lesion size, week 28, from baseline): 12.7 letters
Mean change of BCVA ([1]; active CNV lesion >=50% of total lesion size, week 28, from baseline, listed as aflibercept): 12.7 (−29 to 40) letters
Mean change of BCVA ([1]; active CNV lesion >=50% of total lesion size, week 52, from baseline, PDT group received IVT 2.0 mg VEGF Trap-Eye from week 28): 14.0 letters
Proportion of patients who gained 5 or more letters [1, 6]: 77.6%
Proportion of patients who gained 10 or more letters [1, 6]: 66.7%
Proportion of patients who gained 15 or more letters [1, 6]: 45.6%
Proportion of patients who lost 5 or more letters [1, 6]: 6.8%
Proportion of patients who lost 10 or more letters [1, 6]: 2.7%
Proportion of patients who lost 15 or more letters [1, 6]: 0.7%
Proportion of patients who maintained vision (letter loss <15 letters) [1, 6]: 99.3%
Proportion of patients who gained 5 or more letters [1, 7]: 78.9%
Proportion of patients who gained 10 or more letters [1, 7]: 67.3%
Proportion of patients who gained 15 or more letters [1, 7]: 53.1%
Proportion of patients who lost 5 or more letters [1, 7]: 8.2%
Proportion of patients who lost 10 or more letters [1, 7]: 4.1%
Proportion of patients who lost 15 or more letters [1, 7]: 2.0%
Proportion of patients who maintained vision (letter loss <15 letters) [1, 7]: 98.0%
mean change from baseline BCVA letter score ([1]; whole study population irrespective of the active CNV lesion size, week 28, range in brackets): 14.0 (−29 to 59)
Mean change in CNV lesion size [2, 4]: −0.688 mm^2
Mean change in CNV lesion size [2, 5]: −0.688 mm^2
Mean change in CNV lesion size [2, 6]: −1.009 mm^2
Mean change in CNV lesion size [2, 7]: −1.173 mm^2
Mean change in central retinal thickness [3, 4]: −180.6 um
Mean change in central retinal thickness [3, 5]: −185.5 um
Mean change in central retinal thickness [3, 6]: −180.4 um
Mean change in central retinal thickness [3, 7]: −192.1 um
